From patent US20100099676A1 (SHIONOGI & CO., LTD., priority 2006, published 2010)
pIC50: −log10 of the molar value.

How the values were obtained:
Assay in all cases: Enzyme inhibiting activity of MMPs, fluorogenic peptide substrate
Format in all cases: biochemical
[1] = molecular target: T1, MMP-2 (Homo sapiens, UniProt P08253); settings: substrate MOCAc-Pro-Leu-Gly-Leu-A2Pr(DNP)-Ala-Arg-NH2, fluorescent intensity
T1 construct: purchased Calbiochem (EMD/MERCK Biosciences)
T1 sequence (P08253 110-660): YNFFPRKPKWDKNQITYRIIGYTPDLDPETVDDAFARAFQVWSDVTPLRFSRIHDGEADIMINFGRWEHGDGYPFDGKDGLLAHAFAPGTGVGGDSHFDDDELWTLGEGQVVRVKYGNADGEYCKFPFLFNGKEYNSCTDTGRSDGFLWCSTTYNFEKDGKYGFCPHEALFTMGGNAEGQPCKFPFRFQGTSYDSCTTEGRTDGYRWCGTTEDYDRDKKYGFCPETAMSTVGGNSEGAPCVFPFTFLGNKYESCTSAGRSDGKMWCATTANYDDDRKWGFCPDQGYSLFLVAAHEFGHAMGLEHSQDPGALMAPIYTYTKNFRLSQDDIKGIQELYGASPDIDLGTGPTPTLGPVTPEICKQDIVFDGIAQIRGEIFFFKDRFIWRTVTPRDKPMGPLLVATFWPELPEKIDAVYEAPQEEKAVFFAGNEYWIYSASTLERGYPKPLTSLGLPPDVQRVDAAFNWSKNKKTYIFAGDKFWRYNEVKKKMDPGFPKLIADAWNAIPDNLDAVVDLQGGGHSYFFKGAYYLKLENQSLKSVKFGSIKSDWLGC
Outline: (§1)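 Recombinant human enzymes with the fluorogenic substrate MOCAc-Pro-Leu-Gly-Leu-A2Pr(DNP)-Ala-Arg-NH2. Fluorescence was read for enzyme+substrate±inhibitor and substrate±inhibitor blanks.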

[2] = molecular target: T2, MMP-9 (Homo sapiens, UniProt P14780); settings: substrate MOCAc-Pro-Leu-Gly-Leu-A2Pr(DNP)-Ala-Arg-NH2, fluorescent intensity
T2 construct: purchased Calbiochem (EMD/MERCK Biosciences)
Outline: as §1

[3] = molecular target: T3, MMP-13 (Homo sapiens, UniProt P45452); settings: APMA-activated proenzyme; substrate MOCAc-Pro-Leu-Gly-Leu-A2Pr(DNP)-Ala-Arg-NH2, fluorescent intensity; read-out: IC50 MMP-13
T3 construct: purchased Calbiochem (EMD/MERCK Biosciences)
Outline: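 Pro-MMP-13 was activated with 1 mM APMA at 37° C for 2 h in 50 mM Tris-HCl pH 7.6, 0.3 M NaCl, 10 mM CaCl2, 0.005% Brij35. Activity was read by fluorescence using MOCAc-Pro-Leu-Gly-Leu-A2Pr(DNP)-Ala-Arg-NH2 substrate, with enzyme and inhibitor blank corrections. IC50 is the concentration giving 50% inhibition.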

T2 sequence (P14780 94-707): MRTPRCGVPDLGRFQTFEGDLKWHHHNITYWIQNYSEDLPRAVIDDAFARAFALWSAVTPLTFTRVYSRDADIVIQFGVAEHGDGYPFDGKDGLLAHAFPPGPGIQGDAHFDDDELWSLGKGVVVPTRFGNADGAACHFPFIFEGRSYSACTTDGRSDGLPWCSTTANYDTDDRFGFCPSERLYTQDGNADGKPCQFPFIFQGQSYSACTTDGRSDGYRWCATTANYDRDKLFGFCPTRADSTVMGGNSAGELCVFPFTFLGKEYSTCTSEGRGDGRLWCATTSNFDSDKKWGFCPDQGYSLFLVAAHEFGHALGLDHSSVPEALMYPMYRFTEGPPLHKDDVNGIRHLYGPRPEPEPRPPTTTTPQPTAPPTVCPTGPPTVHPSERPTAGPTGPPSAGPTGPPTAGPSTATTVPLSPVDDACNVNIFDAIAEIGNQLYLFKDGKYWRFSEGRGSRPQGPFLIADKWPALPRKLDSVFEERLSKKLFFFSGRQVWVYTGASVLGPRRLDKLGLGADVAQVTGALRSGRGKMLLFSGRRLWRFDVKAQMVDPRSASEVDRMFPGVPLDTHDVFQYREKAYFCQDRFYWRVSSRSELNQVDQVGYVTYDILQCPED

| Molecule | pIC50 [1] | pIC50 [2] | pIC50 [3] |
| --- | --- | --- | --- |
| CCOc1ccc(C#Cc2ccc(N3CCN(S(=O)(=O)N[C@H](C)C(=O)O)CC3)cc2)cc1-c1ncc(CC)o1 [Compound V-25, (R)-2-(4-{4-[4-ethoxy-3-(5-ethyloxazol-2-yl)-phenylethynyl]-phenyl}-piperazine-1-sulfonylamino)-proponic acid] | 5.00 to 6.00 | < 5.00 | 8.05 |
| CC(C)[C@@H](NS(=O)(=O)N1CCN(c2ccc(C#Cc3ccnc(C(=O)NCc4ccc5oc(=O)n(C)c5c4)c3)cc2)CC1)C(=O)O [Compound V-85, (R)-3-methyl-2-[4-(4-{2-[(3-methyl-2-oxo-2,3-dihydrobenzoxazol-5-ylmethyl)-carbamoyl]-pyridin-4-ylethynyl}-phenyl)-piperazine-1-sulfonylamino]-butanoic acid] | 5.00 to 6.00 | < 5.00 | 8.70 |
| CC(C)[C@@H](NS(=O)(=O)N1CCN(c2ccc(C#Cc3ccnc(C(=O)NCc4ccc(OC(F)(F)F)cc4)c3)cc2)CC1)C(=O)O [III-196, (R)-3-methyl-2-(4-{4-[2-(4-trifluoromethoxybenzylcarbamoyl)-pyridin-4-ylethynyl]-phenyl}-piperazine-1-sulfonylamino)-butanoic acid] | < 5.00 | < 5.00 | 7.70 |
| COCCOc1ccc(C#Cc2ccc(N3CCN(S(=O)(=O)N[C@@H](C(=O)O)C(C)C)CC3)cc2)cc1C(=O)NCC#N [III-2, (R)-2-(4-{4-[3-(cyanomethylcarbamoyl)-4-(2-methoxyethoxy)-phenylethynyl]-phenyl}-piperazine-1-sulfonylamino)-3-methylbutanoic acid] | 5.00 to 6.00 | < 5.00 | 8.05 |
| C[C@@H](NS(=O)(=O)N1CCN(c2ccc(/C=C/c3cccc(C(=O)NCc4ccccc4)c3)cc2)CC1)C(=O)O [Compound I-2, (R)-2-(4-{4-[(E)-2-(3-benzylcarbamoylphenyl)-vinyl]-phenyl}-piperazine-1-sulfonylamino)-proponic acid] | 6.00 to 7.00 | < 5.00 | 8.42 |
| COc1ccc(F)cc1-c1csc(C#Cc2ccc(N3CCN(S(=O)(=O)N[C@H](C)C(=O)O)CC3)cc2)n1 [Compound V-15, (R)-2-(4-{4-[4-(5-fluoro-2-methoxyphenyl)-thiazol-2-ylethynyl]-phenyl}-piperazine-1-sulfonylamino)-proponic acid] | 5.00 to 6.00 | < 5.00 | 7.89 |
| CC(C)[C@@H](NS(=O)(=O)N1CCN(c2ccc(C#Cc3ccnc(C(=O)NCc4ccc(C(F)(F)F)cc4)c3)cc2)CC1)C(=O)O [III-194, (R)-3-methyl-2-(4-{4-[2-(4-trifluoromethylbenzylcarbamoyl)-pyridin-4-ylethynyl]-phenyl}-piperazine-1-sulfonylamino)-butanoic acid] | < 5.00 | < 5.00 | 7.59 |
| COc1ccc(CNC(=O)c2cc(C#Cc3ccc(N4CCN(S(=O)(=O)N[C@H](C(=O)O)C(C)C)CC4)cc3)ccn2)cc1 [Compound V-34, (5)-2-(4-{4-[2-(4-methoxybenzylcarbamoyl)-pyridin-4-ylethynyl]-phenyl}-piperazine-1-sulfonylamino)-3-methylbutanoic acid] | 5.00 to 6.00 | < 5.00 | 8.30 |
| C[C@H](NS(=O)(=O)N1CCN(c2ccc(C#Cc3ccnc(C(=O)NCc4ccc(Cl)cc4)c3)cc2)CC1)C(=O)O [III-59, (S)-2-(4-{4-[2-(4-chrolobenzylcarbamoyl)-pyridin-4-ylethynyl]-phenyl}-piperazine-1-sulfonylamino)-proponic acid] | < 5.00 | < 5.00 | 8.22 |
| CC(C)[C@@H](NS(=O)(=O)N1CCN(c2ccc(C#Cc3ccc4c(c3)c(=O)n(Cc3ccc(F)c(F)c3)c(=O)n4C)cc2)CC1)C(=O)O [Compound V-76, (R)-2-(4-{4-[3-(3,4-difluorobenzyl)-1-methyl-2,4-dioxo-1,2,3,4-tetrahydroquinazolin-6-ylethynyl]-phenyl}-piperazine-1-sulfonylamino)-3-methylbutanoic acid] | < 5.00 | < 5.00 | 7.74 |
| CC(C)[C@@H](NS(=O)(=O)N1CCN(c2ccc(C#Cc3nc(-c4cccc(C(=O)NCC#N)c4)cs3)cc2)CC1)C(=O)O [Compound V-40, (R)-2-[4-(4-{4-[3-(cyanomethylcarbamoyl)-phenyl]-thiazol-2-ylethynyl}-phenyl)-piperazine-1-sulfonylamino]-3-methylbutanoic acid] | 5.00 to 6.00 | 5.00 to 6.00 | 8.10 |
| (R)-3-methyl-2-{4-[4-(1-methyl2,4-dioxo-3-pyridin-4-ylmethyl-1,2,3,4-tetrahydroquinazolin-6-ylethynyl)-phenyl]-piperazine-1-sulfonylamino}-3-methylbutanoic acid [Compound V-77] | < 5.00 | < 5.00 | 8.40 |
| CC(C)CON=Cc1cccc2ccc(C#Cc3ccc(N4CCN(S(=O)(=O)N[C@H](C)C(=O)O)CC4)cc3)cc12 [III-17, (R)-2-(4-{4-[8-(isobutoxyiminomethyl)-naphthalen-2-ylethynyl]-phenyl}-piperazine-1-sulfonylamino)-proponic acid] | < 5.00 | < 5.00 | 7.60 |
| C[C@@H](NS(=O)(=O)N1CCN(c2ccc(C#Cc3nc(-c4cccc(OCc5ccccc5)c4)cs3)cc2)CC1)C(=O)O [Compound V-11, (R)-2-(4-{4-[4-(3-benzyloxyphenyl)-thiazol-2-ylethynyl]-phenyl}-piperazine-1-sulfonylamino)-proponic acid] | 5.00 to 6.00 | < 5.00 | 7.85 |
| CC(C)[C@@H](NS(=O)(=O)N1CCN(c2ccc(C#Cc3ccc4[nH]c(=O)n(Cc5ccc(Cl)cc5)c(=O)c4c3)cc2)CC1)C(=O)O [III-6, (R)-2-(4-{4-[3-(4-chrolobenzyl)-2,4-dioxo-1,2,3,4-tetrahydroquinazolin-6-ylethynyl]-phenyl}-piperazine-1-sulfonylamino)-3-methylbutanoic acid] | < 5.00 | < 5.00 | 7.55 |
| CC(C)[C@@H](NS(=O)(=O)N1CCN(c2ccc(C#Cc3ccnc(C(=O)NCc4ccc(N5CCCCC5)cc4)c3)cc2)CC1)C(=O)O [III-171, (R)-3-methyl-2-(4-{4-[2-(4-piperidin-1-ylbenzylcarbamoyl)-pyridin-4-ylethynyl]-phenyl}-piperazine-1-sulfonylamino)-butanoic acid] | 5.00 to 6.00 | < 5.00 | 8.15 |
| CCc1cnc(-c2cc(C#Cc3ccc(N4CCN(S(=O)(=O)N[C@H](C)C(=O)O)CC4)cc3)ccc2OCCOC)o1 [Compound V-23, (R)-2-(4-{4-[3-(5-ethyloxazol-2-yl)-4-(2-methoxyethoxy)-phenylethynyl]-phenyl}-piperazine-1-sulfonylamino)-proponic acid] | 5.00 to 6.00 | < 5.00 | 8.40 |
| C[C@@H](NS(=O)(=O)N1CCN(c2ccc(C#Cc3nc(-c4cccc(OCc5ccc(S(C)(=O)=O)cc5)c4)cs3)cc2)CC1)C(=O)O [Compound V-20, (R)-2-[4-(4-{4-[3-(4-methanesulfonylbenzyloxy)-phenyl]-thiazol-2-ylethynyl}-phenyl)-piperazine-1-sulfonylamino]-proponic acid] | 5.00 to 6.00 | < 5.00 | 9.00 |
| C[C@@H](NS(=O)(=O)N1CCN(c2ccc(C#Cc3cccc(-c4ncc(-c5ccc(F)cc5)o4)c3)cc2)CC1)C(=O)O [III-12, (R)-2-[4-(4-{3-[5-(4-fluorophenyl)-oxazol-2-yl]-phenylethynyl}-phenyl)-piperazine-1-sulfonylamino]-proponic acid] | < 5.00 | < 5.00 | 8.40 |
| C[C@@H](NS(=O)(=O)N1CCN(c2ccc(C#Cc3ccc4c(c3)C(=O)N(Cc3ccccc3)CCN4C)cc2)CC1)C(=O)O [Compound V-52, (R)-2-{4-[4-(4-benzyl1-methyl-5-oxo-2,3,4,5-tetrahydro1H-benzo[e][1,4]diazepin-7-ylethynyl)-phenyl]-piperazine-1-sulfonylamino}-proponic acid] | 5.00 to 6.00 | 5.00 to 6.00 | 7.92 |
| C[C@@H](NS(=O)(=O)N1CCN(c2ccc(C#Cc3cc(C(=O)NCc4ccccc4)c(=O)n(C)c3)cc2)CC1)C(=O)O [III-4, (R)-2-{4-[4-(5-benzylcarbamoyl-1-methyl-6-oxo-1,6-dihydropyridin-3-ylethynyl)-phenyl]-piperazine-1-sulfonylamino}-proponic acid] | 5.00 to 6.00 | < 5.00 | 8.22 |
